This passage reports remaining binding results from patent US10870647B2, “Imidazopyridine derivative, method for preparing same, and pharmaceutical composition containing same as active ingredient for preventing or treating cancer” (DAEGU-GYEONGBUK MEDICAL INNOVATION FOUNDATION, priority 2016, dated 2020).

Test in all cases: Kinase selectivity, scanMAX Kinase assay panel (DiscoverX), % control at 1 uM
Holding throughout (type): binding

The target in experiment [1] is T1, scanMAX Kinase assay panel (Homo sapiens, UniProt O15197).
T1 construct: purchased DiscoverX
T1 sequence (O15197 32-1021): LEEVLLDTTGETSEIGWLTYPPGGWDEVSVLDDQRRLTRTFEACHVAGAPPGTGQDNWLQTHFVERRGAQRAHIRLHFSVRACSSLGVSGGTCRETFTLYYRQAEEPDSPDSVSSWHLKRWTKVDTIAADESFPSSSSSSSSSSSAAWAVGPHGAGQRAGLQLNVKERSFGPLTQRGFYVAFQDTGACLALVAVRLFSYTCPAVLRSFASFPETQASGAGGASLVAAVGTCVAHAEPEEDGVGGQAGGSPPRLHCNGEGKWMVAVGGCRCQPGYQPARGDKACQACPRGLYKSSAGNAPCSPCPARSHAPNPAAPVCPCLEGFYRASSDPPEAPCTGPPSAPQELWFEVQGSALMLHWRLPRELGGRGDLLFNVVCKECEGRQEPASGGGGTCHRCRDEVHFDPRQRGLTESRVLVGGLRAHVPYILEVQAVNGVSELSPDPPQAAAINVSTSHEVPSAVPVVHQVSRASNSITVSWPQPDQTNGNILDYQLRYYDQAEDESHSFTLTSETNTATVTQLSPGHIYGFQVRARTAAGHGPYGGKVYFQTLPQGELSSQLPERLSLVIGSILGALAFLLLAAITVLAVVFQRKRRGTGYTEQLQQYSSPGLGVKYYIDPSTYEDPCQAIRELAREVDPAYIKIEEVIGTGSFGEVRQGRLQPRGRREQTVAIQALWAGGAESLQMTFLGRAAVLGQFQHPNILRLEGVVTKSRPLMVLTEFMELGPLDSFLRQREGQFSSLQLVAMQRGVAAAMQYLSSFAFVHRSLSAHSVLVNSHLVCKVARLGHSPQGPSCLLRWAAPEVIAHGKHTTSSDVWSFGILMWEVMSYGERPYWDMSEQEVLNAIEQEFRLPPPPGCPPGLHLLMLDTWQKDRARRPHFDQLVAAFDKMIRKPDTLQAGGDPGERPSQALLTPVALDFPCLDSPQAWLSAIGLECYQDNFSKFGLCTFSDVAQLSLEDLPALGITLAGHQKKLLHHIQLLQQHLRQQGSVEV
Particulars: EPHB6; 1 uM; read-out: Percent Control (%). Put shortly: (§1)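 1 uM cpd (DMSO) per kinase; % ctrl = [cpd − pos ctrl]/[neg ctrl − pos ctrl] × 100; hit if <35.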

The target of experiment [2] is T2, scanMAX Kinase assay panel (Homo sapiens, UniProt P06241).
T2 construct: purchased DiscoverX
T2 sequence (P06241 whole entry): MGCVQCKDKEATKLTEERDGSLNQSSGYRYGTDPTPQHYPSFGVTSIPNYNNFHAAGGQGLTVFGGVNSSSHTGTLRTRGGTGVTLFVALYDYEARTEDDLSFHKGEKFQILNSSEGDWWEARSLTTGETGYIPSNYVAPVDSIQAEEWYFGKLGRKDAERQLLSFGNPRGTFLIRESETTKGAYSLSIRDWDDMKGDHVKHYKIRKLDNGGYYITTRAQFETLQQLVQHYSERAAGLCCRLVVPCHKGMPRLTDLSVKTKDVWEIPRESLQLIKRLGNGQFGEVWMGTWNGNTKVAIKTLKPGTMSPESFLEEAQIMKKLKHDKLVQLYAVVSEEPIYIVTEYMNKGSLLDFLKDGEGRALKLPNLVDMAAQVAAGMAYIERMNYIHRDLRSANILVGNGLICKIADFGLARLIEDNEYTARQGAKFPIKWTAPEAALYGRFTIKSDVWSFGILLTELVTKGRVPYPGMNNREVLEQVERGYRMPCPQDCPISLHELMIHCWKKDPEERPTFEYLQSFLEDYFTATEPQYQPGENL
Particulars: FYN; 1 uM; read-out: Percent Control (%). Put shortly: as §1

Experiment [3] concerns the target T3, scanMAX Kinase assay panel (Homo sapiens, UniProt P10721, D816V).
T3 construct: purchased DiscoverX
Particulars: KIT (D816V); 1 uM; read-out: Percent Control (%). In a few lines:
as §1

Experiment [4] deals with T4, scanMAX Kinase assay panel (Homo sapiens, UniProt P41240).
T4 construct: purchased DiscoverX
T4 sequence (P41240 whole entry): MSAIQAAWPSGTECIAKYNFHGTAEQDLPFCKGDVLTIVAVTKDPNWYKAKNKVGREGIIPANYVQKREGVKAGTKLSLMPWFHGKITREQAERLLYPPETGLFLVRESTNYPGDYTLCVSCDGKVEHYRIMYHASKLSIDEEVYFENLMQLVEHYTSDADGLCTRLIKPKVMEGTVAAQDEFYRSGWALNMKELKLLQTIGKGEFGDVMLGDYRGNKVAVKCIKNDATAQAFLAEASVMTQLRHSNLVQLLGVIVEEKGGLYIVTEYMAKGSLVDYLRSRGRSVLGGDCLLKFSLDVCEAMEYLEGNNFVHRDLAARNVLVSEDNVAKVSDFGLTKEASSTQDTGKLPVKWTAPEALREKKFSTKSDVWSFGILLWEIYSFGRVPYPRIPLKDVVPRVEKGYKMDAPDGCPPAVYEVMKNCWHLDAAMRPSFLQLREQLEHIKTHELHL
Particulars: CSK; 1 uM; read-out: Percent Control (%). Put shortly: as §1

The target in experiment [5] is T5, scanMAX Kinase assay panel (Homo sapiens, UniProt Q13555).
T5 construct: purchased DiscoverX
T5 sequence (Q13555 whole entry): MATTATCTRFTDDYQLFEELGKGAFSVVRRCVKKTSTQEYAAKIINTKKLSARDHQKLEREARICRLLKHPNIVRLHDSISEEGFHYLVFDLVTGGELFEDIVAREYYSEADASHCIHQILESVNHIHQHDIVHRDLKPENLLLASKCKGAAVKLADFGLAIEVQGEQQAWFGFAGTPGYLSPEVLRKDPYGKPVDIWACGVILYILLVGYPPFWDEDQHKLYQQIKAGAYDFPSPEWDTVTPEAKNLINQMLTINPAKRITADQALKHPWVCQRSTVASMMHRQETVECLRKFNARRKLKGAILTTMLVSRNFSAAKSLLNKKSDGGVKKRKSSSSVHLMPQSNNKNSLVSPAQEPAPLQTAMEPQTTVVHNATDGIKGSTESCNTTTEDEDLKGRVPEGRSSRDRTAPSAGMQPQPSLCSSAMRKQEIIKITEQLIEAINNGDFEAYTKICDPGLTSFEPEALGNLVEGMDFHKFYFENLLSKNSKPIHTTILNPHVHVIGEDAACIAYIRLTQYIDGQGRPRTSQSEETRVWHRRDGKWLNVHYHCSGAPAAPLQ
Particulars: CAMK2G; 1 uM; read-out: Percent Control (%). Put shortly: as §1

Experiment [6] deals with T6, scanMAX Kinase assay panel (Homo sapiens, UniProt Q16816).
T6 construct: purchased DiscoverX
T6 sequence (Q16816 whole entry): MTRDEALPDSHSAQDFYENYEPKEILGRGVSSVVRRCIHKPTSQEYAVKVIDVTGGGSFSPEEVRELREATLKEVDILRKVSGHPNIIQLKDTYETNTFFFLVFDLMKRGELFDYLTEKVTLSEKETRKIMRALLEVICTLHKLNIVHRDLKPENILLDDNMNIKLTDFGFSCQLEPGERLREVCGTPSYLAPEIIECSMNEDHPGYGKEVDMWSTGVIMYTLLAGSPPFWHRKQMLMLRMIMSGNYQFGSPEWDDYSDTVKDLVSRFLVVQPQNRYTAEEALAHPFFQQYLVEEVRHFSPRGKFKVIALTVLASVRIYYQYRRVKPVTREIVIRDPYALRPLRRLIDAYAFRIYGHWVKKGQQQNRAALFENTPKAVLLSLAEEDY
Particulars: PHKG1; 1 uM; read-out: Percent Control (%). In a few lines:
as §1

Experiment [7] deals with T7, scanMAX Kinase assay panel (Homo sapiens, UniProt Q5VT25).
T7 construct: purchased DiscoverX
T7 sequence (Q5VT25 whole entry): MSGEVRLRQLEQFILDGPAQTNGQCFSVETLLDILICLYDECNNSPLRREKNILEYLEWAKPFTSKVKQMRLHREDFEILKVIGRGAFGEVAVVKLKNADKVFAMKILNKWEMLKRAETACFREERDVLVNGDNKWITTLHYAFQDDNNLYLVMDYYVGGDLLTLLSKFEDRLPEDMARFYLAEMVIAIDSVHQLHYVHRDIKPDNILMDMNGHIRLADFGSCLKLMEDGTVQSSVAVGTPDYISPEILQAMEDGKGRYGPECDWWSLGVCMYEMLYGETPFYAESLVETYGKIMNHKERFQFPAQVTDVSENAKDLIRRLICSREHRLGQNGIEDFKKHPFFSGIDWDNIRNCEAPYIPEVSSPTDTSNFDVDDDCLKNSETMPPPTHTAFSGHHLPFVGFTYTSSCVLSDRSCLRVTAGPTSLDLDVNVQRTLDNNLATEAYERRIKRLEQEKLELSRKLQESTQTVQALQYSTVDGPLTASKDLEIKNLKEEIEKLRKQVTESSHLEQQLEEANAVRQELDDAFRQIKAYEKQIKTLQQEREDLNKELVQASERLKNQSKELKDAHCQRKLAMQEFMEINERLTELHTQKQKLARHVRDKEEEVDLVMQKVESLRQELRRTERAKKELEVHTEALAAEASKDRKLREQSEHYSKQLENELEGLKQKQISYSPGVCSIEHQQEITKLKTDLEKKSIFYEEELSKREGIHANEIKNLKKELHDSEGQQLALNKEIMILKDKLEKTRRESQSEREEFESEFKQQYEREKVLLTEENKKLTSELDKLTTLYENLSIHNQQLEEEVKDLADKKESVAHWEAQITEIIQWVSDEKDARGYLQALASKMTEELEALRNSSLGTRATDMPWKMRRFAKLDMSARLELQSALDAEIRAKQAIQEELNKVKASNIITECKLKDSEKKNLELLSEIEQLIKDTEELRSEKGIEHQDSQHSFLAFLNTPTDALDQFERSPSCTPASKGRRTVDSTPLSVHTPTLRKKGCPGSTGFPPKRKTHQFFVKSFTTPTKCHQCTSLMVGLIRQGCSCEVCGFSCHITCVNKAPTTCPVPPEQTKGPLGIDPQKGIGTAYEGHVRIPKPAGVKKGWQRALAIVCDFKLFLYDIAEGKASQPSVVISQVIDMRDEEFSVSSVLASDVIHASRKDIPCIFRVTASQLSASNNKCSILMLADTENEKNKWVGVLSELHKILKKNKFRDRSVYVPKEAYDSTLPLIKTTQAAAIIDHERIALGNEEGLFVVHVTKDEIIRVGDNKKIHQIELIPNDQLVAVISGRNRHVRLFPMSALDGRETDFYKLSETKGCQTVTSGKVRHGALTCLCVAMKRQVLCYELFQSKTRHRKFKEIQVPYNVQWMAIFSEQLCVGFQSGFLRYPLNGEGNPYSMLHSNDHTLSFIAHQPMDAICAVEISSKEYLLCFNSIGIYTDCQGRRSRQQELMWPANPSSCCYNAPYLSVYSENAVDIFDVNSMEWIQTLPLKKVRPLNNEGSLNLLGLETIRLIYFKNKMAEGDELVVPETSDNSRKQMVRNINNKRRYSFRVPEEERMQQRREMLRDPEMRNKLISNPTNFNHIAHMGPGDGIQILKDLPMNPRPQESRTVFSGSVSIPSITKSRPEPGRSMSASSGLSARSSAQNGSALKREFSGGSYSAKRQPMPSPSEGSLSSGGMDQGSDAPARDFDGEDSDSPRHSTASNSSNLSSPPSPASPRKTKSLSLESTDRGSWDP
Particulars: MRCKA; 1 uM; read-out: Percent Control (%). Put shortly:
as §1

The target in experiment [8] is T8, scanMAX Kinase assay panel (Homo sapiens, UniProt Q9UF33).
T8 construct: purchased DiscoverX
T8 sequence (Q9UF33 23-1036): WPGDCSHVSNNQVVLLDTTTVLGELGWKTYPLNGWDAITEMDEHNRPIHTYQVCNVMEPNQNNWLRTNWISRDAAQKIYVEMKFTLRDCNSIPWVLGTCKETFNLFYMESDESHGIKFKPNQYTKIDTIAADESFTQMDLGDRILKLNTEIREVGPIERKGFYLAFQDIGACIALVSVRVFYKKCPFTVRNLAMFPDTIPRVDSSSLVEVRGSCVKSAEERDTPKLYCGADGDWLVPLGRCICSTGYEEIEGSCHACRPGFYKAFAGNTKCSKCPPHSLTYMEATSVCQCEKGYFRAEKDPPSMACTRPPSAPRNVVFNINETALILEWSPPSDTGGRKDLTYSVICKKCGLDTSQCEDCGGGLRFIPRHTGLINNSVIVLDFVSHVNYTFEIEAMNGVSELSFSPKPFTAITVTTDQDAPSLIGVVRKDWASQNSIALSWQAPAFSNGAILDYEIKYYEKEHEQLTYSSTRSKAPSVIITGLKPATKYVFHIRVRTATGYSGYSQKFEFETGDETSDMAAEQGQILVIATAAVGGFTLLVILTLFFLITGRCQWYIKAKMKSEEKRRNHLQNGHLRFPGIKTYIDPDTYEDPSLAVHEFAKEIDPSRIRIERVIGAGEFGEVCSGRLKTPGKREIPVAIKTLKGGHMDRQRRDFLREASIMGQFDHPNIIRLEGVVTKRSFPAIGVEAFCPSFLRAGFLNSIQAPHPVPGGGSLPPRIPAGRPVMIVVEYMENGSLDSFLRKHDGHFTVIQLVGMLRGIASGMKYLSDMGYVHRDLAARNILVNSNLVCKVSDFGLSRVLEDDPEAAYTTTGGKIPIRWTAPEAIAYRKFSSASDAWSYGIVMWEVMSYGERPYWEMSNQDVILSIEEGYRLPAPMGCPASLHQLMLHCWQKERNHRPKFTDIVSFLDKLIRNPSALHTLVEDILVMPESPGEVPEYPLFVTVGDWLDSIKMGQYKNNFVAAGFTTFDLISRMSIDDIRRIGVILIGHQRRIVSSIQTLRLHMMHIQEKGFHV
Particulars: EPHA6; 1 uM; read-out: Percent Control (%). In a few lines: as §1

Experiment [9] deals with T9, scanMAX Kinase assay panel (Homo sapiens, UniProt Q9Y2I7).
T9 construct: purchased DiscoverX
Particulars: PIKFYVE; 1 uM; read-out: Percent Control (%). In a few lines:
as §1

T3 sequence (P10721 26-976 D816V): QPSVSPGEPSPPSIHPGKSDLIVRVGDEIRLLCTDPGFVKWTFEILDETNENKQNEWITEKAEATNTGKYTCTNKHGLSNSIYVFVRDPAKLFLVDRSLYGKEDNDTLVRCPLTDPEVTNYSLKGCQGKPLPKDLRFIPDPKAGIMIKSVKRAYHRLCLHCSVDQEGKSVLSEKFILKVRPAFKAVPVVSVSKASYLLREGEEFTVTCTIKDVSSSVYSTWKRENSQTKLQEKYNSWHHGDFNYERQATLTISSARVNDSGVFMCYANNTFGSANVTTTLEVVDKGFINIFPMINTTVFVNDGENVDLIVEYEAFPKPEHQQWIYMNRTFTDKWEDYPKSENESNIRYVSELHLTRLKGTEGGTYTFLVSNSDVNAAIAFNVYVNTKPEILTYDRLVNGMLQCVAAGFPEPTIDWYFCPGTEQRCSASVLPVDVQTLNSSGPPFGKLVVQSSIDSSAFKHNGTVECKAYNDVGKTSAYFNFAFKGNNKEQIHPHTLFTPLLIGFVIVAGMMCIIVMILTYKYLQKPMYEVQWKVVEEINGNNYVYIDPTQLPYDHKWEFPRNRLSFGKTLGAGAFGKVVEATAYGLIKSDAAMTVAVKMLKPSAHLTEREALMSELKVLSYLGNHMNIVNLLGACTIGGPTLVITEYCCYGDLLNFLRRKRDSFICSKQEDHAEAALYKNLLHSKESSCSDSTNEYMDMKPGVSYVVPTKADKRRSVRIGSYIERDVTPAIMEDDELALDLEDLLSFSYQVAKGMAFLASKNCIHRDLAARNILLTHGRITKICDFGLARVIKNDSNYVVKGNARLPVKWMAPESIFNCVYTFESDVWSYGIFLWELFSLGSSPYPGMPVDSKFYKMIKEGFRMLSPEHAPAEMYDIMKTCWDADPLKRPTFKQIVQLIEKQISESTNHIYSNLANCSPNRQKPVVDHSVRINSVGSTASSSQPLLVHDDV

Regarding `Cc1ccc(C(=O)Nc2ccc(CN3CCN(C)CC3)c(C(F)(F)F)c2)cc1C#Cc1cnc2c(Nc3cnn(C)c3)cccn12` [Example 1, 4-methyl-3-((8-((1-methyl-1H-pyrazol-4-yl)amino)imidazo[1,2-a]pyridin-3-yl)ethynyl)-N-(4-((4-methylpiperazin-1-yl)methyl)-3-(trifluoromethyl)phenyl)benzamide], the remaining binding at 1 µM in experiment [1] was found to be 1%; in experiment [2], 1%; in [3], 3%; in [4] it was 2%; in experiment [5] it was 73%; in experiment [6], 85%. Besides, the remaining binding at 1 µM was 96% in experiment [7], 2% in experiment [8] and 84% in experiment [9].
Take `Cc1ccc(NC(=O)C2(C(=O)Nc3ccc(F)cc3)CC2)cc1C#Cc1cnc2c(Nc3cnn(C(C)C)c3)cccn12` [Example 78]: the remaining binding at 1 µM in [1] amounted to 0%; in [2], 84%; in experiment [3], 61%; in experiment [4], 98%; in experiment [5], 100%; in [6], 88%. The remaining binding at 1 µM in [7] turned out to be 100%; in experiment [8], 90%; in experiment [9] it was 91%.
Consider `Cc1cn(-c2cc(NC(=O)c3ccc(C)c(C#Cc4cnc5c(Nc6cnn(C)c6)cccn45)c3)cc(C(F)(F)F)c2)cn1` [Example 12, 4-methyl-N-(3-(4-methyl-1H-imidazol-1-yl)-5-(trifluoromethyl)phenyl)-3-((8-((1-methyl-1H-pyrazol-4-yl)amino)imidazo[1,2-a]pyridin-3-yl)ethynyl)benzamide], for which the remaining binding at 1 µM in experiment [1] is 0%; in experiment [2], 15%; in [3] it was 7%; in experiment [4] it was 1%; in [5], 80%; in [6] it was 84%. Further, the remaining binding at 1 µM amounted to 91% in experiment [7], 19% in experiment [8] and 65% in experiment [9].
